pIC50: −log10 of the molar value. Like-named read-outs stand apart in the source and are kept apart here.

This is an account of results in patent US20250122222A1, “HETEROCYCLIC COMPOUNDS AND METHODS OF USE” (AMGEN INC., priority 2021, published 2025).

In test [1] the target is His-tagged KRAS G12D protein (Homo sapiens, UniProt P01116, G12D). Kind of test: KRAS G12D TR-FRET assay (binding). The note with it: biotinylated KRPep-2d substrate, GDP in assay buffer. Background: Time-resolved FRET reads energy transfer from a long-lived donor to a nearby acceptor.
Description: The plate was incubated for 30 minutes at room temperature. Biotinylated KRPep-2d substrate (Amgen) was diluted to 20 nM in Assay Buffer and 2 L was added to all wells and incubated for 1 hour at room temperature. Detection Reagent (0.4 nM LANCE Eu-W1024 Anti-6xHis (Perkin Elmer AD0401), 5 nM streptavidin-d^2 (Cisbio 610SADLA)) was prepared in Assay Buffer, then 4 μL was added to the plate and incubated for 1 hour at room temperature.
The subject of test [2] is Phosphorylation of ERK1/2 in AsPC-1 cells. Kind of test: Phospho-ERK1/2 MSD assay. It is filed as cell-based. The note with it: for IC50: Homo sapiens, ASPC1, read-out: 2 h p-ERK (AsPC-1 cells), IC50 (μM), 2 hours compound treatment. As for the experimental part:
Sixteen hours prior to compound treatment, AsPC-1 cells were seeded in 96-well cell culture plates at a density of 25,000 cells/well and incubated at 37° C., 5% CO2. A compound dose-response titration was diluted in growth media, added to appropriate wells of a cell culture plate, and then incubated at 37° C., 5% CO2 for 2 hours.

His-tagged KRAS G12D protein, sequence (P01116 1-188 isoform P01116-2 G12D): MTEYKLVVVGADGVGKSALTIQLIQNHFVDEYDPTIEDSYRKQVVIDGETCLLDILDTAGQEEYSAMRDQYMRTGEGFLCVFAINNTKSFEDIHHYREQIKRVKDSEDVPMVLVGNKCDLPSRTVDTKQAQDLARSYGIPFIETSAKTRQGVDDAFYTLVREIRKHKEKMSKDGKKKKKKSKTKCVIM

`CCc1c(F)ccc2cc(O)cc(-c3ncc4c(N5CCOCC5)nc(OC[C@@]56CCCN5C[C@H](F)C6)nc4c3F)c12` [Example 24, 5-Ethyl-6-fluoro-4-(8-fluoro-2-(((2R,7aS)-2-fluorotetrahydro-1H-pyrrolizin-7a(5H)-yl)methoxy)-4-morpholinopyrido [4,3-d]pyrimidin-7-yl)naphthalen-2-ol] showed a pIC50 in test [1] of 7.96. In addition, the IC50 in test [2] came out at 0.586 µM.
In the same order, the values of `CCc1c(F)ccc2cc(O)cc(-c3ncc4c(N5C[C@H]6C[C@@H](C5)O6)nc(OC[C@@]56CCCN5C[C@H](F)C6)nc4c3F)c12` [Example 27, 4-(4-((1R,5S)-6-Oxa-3-azabicyclo[3.1.1]heptan-3-yl)-8-fluoro-2-(((2R,7aS)-2-fluorotetrahydro-1H-pyrrolizin-7a(5H)-yl)methoxy)pyrido [4,3-d]pyrimidin-7-yl)-5-ethyl-6-fluoronaphthalen-2-ol] are 7.21 and 2.28 µM.
As for `CCc1c(F)ccc2cc(O)cc(-c3ncc4c(N5C[C@@H]6CC[C@@H]5CO6)nc(OC[C@@]56CCCN5C[C@H](F)C6)nc4c3F)c12` [Example 28, 4-(4-((1S,4R)-2-Oxa-5-azabicyclo[2.2.2]octan-5-yl)-8-fluoro-2-(((2R,7aS)-2-fluorotetrahydro-1H-pyrrolizin-7a(5H)-yl)methoxy)pyrido [4,3-d]pyrimidin-7-yl)-5-ethyl-6-fluoronaphthalen-2-ol], the pIC50 in test [1] is 7.10. Moreover, in test [2], the IC50 was found to be 1.77 µM.
Take `CCc1cccc2cc(O)cc(-c3ncc4c(N5CCCOCC5)nc(OC[C@@H]5C[C@@H](F)CN5C)nc4c3F)c12` [Example 32, 5-Ethyl-4-(8-fluoro-2-(((2S,4R)-4-fluoro-1-methylpyrrolidin-2-yl)methoxy)-4-(1,4-oxazepan-4-yl)pyrido[4,3-d]pyrimidin-7-yl)naphthalen-2-ol]: in test [1], the pIC50 was 7.89. The IC50 in test [2] was 0.966 µM.
In turn, `CCc1c(F)ccc2cc(O)cc(-c3ncc4c(N5CC[S+]([O-])CC5)nc(OC[C@@]56CCCN5C[C@H](F)C6)nc4c3F)c12` [Example 34, 4-(7-(8-Ethyl-7-fluoro-3-hydroxynaphthalen-1-yl)-8-fluoro-2-(((2R,7aS)-2-fluorotetrahydro-1H-pyrrolizin-7a(5H)-yl)methoxy)pyrido[4,3-d]pyrimidin-4-yl)thiomorpholine 1-oxide] gave a pIC50 in test [1] of 9.00. In addition, the IC50 in test [2] was determined as 0.393 µM.
In the same order, the values of `CCc1c(F)ccc2cc(O)cc(-c3ncc4c(N5CCS(=N)(=O)CC5)nc(OC[C@@]56CCCN5C[C@H](F)C6)nc4c3F)c12` [Example 35, 4-(7-(8-Ethyl-7-fluoro-3-hydroxynaphthalen-1-yl)-8-fluoro-2-(((2R,7aS)-2-fluorotetrahydro-1H-pyrrolizin-7a(5H)-yl)methoxy)pyrido[4,3-d]pyrimidin-4-yl)-1-imino-1 λ^6-thiomorpholine 1-oxide] are 7.24 and above 10 µM.
`CCc1c(F)ccc2cc(O)cc(-c3ncc4c(N5CCC[S+]([O-])CC5)nc(OC[C@@]56CCCN5C[C@H](F)C6)nc4c3F)c12` (stereo partly drawn) [Example 36, 4-(7-(8-Ethyl-7-fluoro-3-hydroxynaphthalen-1-yl)-8-fluoro-2-(((2R,7aS)-2-fluorotetrahydro-1H-pyrrolizin-7a(5H)-yl)methoxy)pyrido[4,3-d]pyrimidin-4-yl)-1,4-thiazepane 1-oxide] gave a pIC50 in test [1] of 9.00. Also, the IC50 in test [2] came out at 0.651 µM.
In the same order, the values of `CCc1c(F)ccc2cc(O)cc(-c3ncc4c(N5CCCS(=O)(=O)CC5)nc(OC[C@@]56CCCN5C[C@H](F)C6)nc4c3F)c12` [Example 37, 4-(7-(8-Ethyl-7-fluoro-3-hydroxynaphthalen-1-yl)-8-fluoro-2-(((2R,7aS)-2-fluorotetrahydro-1H-pyrrolizin-7a(5H)-yl)methoxy)pyrido[4,3-d]pyrimidin-4-yl)-1,4-thiazepane 1,1-dioxide] are 7.96 and 2.66 µM.
In turn, `CCc1c(F)ccc2cc(O)cc(-c3ncc4c(N5CCCS(=N)(=O)CC5)nc(OC[C@@]56CCCN5C[C@H](F)C6)nc4c3F)c12` (stereo partly drawn) [Example 38, 4-(7-(8-Ethyl-7-fluoro-3-hydroxynaphthalen-1-yl)-8-fluoro-2-(((2R,7aS)-2-fluorotetrahydro-1H-pyrrolizin-7a(5H)-yl)methoxy)pyrido[4,3-d]pyrimidin-4-yl)-1-imino-1 λ^6,4-thiazepane 1-oxide] gave a pIC50 in test [1] of 7.68. Also, in test [2], the IC50 was above 10 µM.
`CCc1c(F)ccc2cc(O)cc(-c3ncc4c(N5CCOC[C@@H](OC)C5)nc(OC[C@@]56CCCN5C[C@H](F)C6)nc4c3F)c12` [Example 39, 5-Ethyl-6-fluoro-4-(8-fluoro-2-(((2R,7aS)-2-fluorotetrahydro-1H-pyrrolizin-7a(5H)-yl)methoxy)-4-((S)-6-methoxy-1,4-oxazepan-4-yl)pyrido[4,3-d]pyrimidin-7-yl)naphthalen-2-ol] showed a pIC50 in test [1] of 8.30. In addition, in test [2], the IC50 amounted to 0.171 µM.
Regarding `CCc1c(F)ccc2cc(O)cc(-c3ncc4c(N5CCOC[C@H](CO)C5)nc(OC[C@@]56CCCN5C[C@H](F)C6)nc4c3F)c12` [Example 49, 5-Ethyl-6-fluoro-4-(8-fluoro-2-(((2R, 7aS)-2-fluorotetra-hydro-1H-pyrrol-izin-7a(5H)-yl)-methoxy)-4-((S)-6-(hydroxymethyl)-1,4-oxazepan-4-yl)-pyrido[4,3-d]pyr-imidin-7-yl)naph-thalen-2-ol], the pIC50 was 7.89 in test [1] and 6.05 in test [2] (read-out: 2 h p-ERK (AsPC-1 cells), IC50, 2 hours compound treatment).
Molecule `CCc1c(F)ccc2cc(O)cc(-c3ncc4c(N5CCCOC(C(N)=O)C5)nc(OC[C@@]56CCCN5C[C@H](F)C6)nc4c3F)c12` (stereo partly drawn) [Example 51, 4-(7-(8-Ethyl-7-fluoro-3-hydroxy-naphthalen-1-yl)-8-fluoro-2-(((2R, 7aS)-2-fluorotetra-hydro-1H-pyrrol-zin-7a(5H)-yl)-methoxy)pyrido [4,3-d]pyrimidin-4-yl)-1,4-oxazepane-2-carboxamide] had a pIC50 in test [1] of 8.22. Besides, in test [2], the IC50 stood at 6.23 µM.
As for `CCc1c(F)ccc2cc(O)cc(-c3ncc4c(N5CCO[C@H](C)C5)nc(OC[C@@]56CCCN5C[C@H](F)C6)nc4c3F)c12` [Example 52, 5-Ethyl-6-fluoro-4-(8-fluoro-2-(((2R,7aS)-2-fluorotetrahydro-1H-pyrrolizin-7a(5H)-yl)meth-oxy)-4-((R)-2-methylmorpho-lino)-pyrido[4,3-d]pyrimidin-7-yl)-naphthalen-2-ol], the pIC50 in test [1] is 7.48. In test [2], the concentration for half-maximal inhibition (IC50) worked out at 1.28 µM.
For `CCc1c(F)ccc2cc(O)cc(-c3ncc4c(N5CCO[C@@H](COC)C5)nc(OC[C@@]56CCCN5C[C@H](F)C6)nc4c3F)c12` [Example 53, 5-Ethyl-6-fluoro-4-(8-fluoro-2-(((2R, 7aS)-2-fluorotetra-hydro-1H-pyrrol-izin-7a(5H)-yl)-methoxy)-4-((R)-2-(methoxymeth-yl)morpholino)pyr-ido[4,3-d]pyrimi-din-7-yl)naph-thalen-2-ol], the pIC50 in test [1] is 7.41. For the same molecule, the IC50 in test [2] came out at 1.24 µM.
As to `CCc1c(F)ccc2cc(O)cc(-c3ncc4c(N5CCCOC(CO)C5)nc(OC[C@@]56CCCN5C[C@H](F)C6)nc4c3F)c12` (stereo partly drawn) [Example 56, 5-Ethyl-6-fluoro-4-(8-fluoro-2-(((2R, 7aS)-2-fluorotetra-hydro-1H-pyrrol-izin-7a(5H)-yl)-methoxy)-4-(2-(hydroxymethyl)-1,4-oxazepan-4-yl)pyrido[4,3-d]pyrimidin-7-yl)-naphthalen-2-ol], the pIC50 in test [1] is 8.52. Further, the IC50 in test [2] worked out at 0.081 µM.
In the same order, the values of `CCc1c(F)ccc2cc(O)cc(-c3ncc4c(N5CCOC(CO)CC5)nc(OC[C@@]56CCCN5C[C@H](F)C6)nc4c3F)c12` (stereo partly drawn) [Example 57, 5-Ethyl-6-fluoro-4-(8-fluoro-2-(((2R, 7aS)-2-fluorotetra-hydro-1H-pyrrolizin-7a(5H)-yl)methoxy)-4-(7-(hydroxymeth-yl)-1,4-oxazepan-4-yl)pyrido[4,3-d]pyrimidin-7-yl)-naphthalen-2-ol] are 7.89 and 5.95 µM.
The molecule `CCc1c(F)ccc2cc(O)cc(-c3ncc4c(N5CC6CC5CS6(=O)=O)nc(OC[C@@]56CCCN5C[C@H](F)C6)nc4c3F)c12` (stereo partly drawn) [Example 59, 5-(7-(8-Ethyl-7-fluoro-3-hydroxy-naphthalen-1-yl)-8-fluoro-2-(((2R,7aS)-2-fluorotetrahydro-1H-pyrrolizin-7a(5H)-yl)meth-oxy)pyrido[4,3-d]pyrimidin-4-yl)-2-thia-5-azabicyclo [2.2.1]heptane 2,2-dioxide] gave a pIC50 in test [1] of 7.85. The IC50 in test [2] stood at 3.63 µM.
As to `CCc1c(F)ccc2cc(O)cc(-c3ncc4c(N5CCOCC(C#N)C5)nc(OC[C@@]56CCCN5C[C@H](F)C6)nc4c3F)c12` (stereo partly drawn) [Example 61, 4-(7-(8-Ethyl-7-fluoro-3-hydroxy-naphthalen-1-yl)-8-fluoro-2-(((2R,7aS)-2-fluorotetrahydro-1H-pyrrolizin-7a(5H)-yl)meth-oxy)-pyrido[4,3-d]pyrimidin-4-yl)-1,4-oxazepane-6-carbonitrile], in test [1], the pIC50 was 8.52. Moreover, the IC50 in test [2] is 0.193 µM.
In the case of `CCc1c(F)ccc2cc(O)cc(-c3ncc4c(N5CCCS(=O)(=O)C5)nc(OC[C@@]56CCCN5C[C@H](F)C6)nc4c3F)c12` [Example 62, 3-(7-(8-Ethyl-7-fluoro-3-hydroxy-naphthalen-1-yl)-8-fluoro-2-(((2R,7aS)-2-fluorotetrahydro-1H-pyrrolizin-7a(5H)-yl)meth-oxy)pyrido[4,3-d]pyrimidin-4-yl)-1,3-thiazinane 1,1-dioxide], the pIC50 in test [1] is 9.00. Also, the IC50 in test [2] was 0.07 µM.

The term pIC50 denotes the negative decadic logarithm of the IC50, by convention in mol/L. As a reminder, the IC50 is the concentration at which inhibition is half-maximal.
